Results published in patent publication US20260116910A1, “POLYCYCLIC COMPOUNDS AND METHODS THEREOF” (HEPAITECH (BEIJING) BIOPHARMA TECHNOLOGY CO., LTD., priority 2021, published 2026).
Several values for one entry are separate records, joined by “and”; a condition that tells them apart may be missing. Equal values may be shown once. Read-outs that look alike come from different tables or passages of the source.

Legend:
[1] = target: T1, human FXR (NR1H4) (Homo sapiens, UniProt Q96RI1); test: Human FXR (NR1H4) agonist assessment, FXRE-NanoLuc reporter in HEK293T cells; assay type: cell-based
T1 sequence (Q96RI1 1-476 isoform Q96RI1-1): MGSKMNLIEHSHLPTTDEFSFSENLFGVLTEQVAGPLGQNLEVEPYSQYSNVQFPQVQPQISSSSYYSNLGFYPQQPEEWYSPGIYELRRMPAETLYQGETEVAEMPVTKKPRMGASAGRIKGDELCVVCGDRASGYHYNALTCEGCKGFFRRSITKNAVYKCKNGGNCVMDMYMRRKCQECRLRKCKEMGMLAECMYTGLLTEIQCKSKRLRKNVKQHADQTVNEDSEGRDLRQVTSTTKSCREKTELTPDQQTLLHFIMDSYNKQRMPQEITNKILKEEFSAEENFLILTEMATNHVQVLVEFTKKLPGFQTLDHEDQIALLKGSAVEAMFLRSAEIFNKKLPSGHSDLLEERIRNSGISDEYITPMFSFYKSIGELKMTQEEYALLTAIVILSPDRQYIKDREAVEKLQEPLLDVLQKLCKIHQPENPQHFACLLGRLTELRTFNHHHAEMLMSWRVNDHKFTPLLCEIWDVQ
In short: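 HEK293T cells stably expressing human FXR with an FXRE-NanoLuc reporter were treated with compounds for 24 hr at 37 °C, with 0.01% DMSO as negative control. Medium was read for luminescence after 5 min with coelenterazine. EC50 was fitted by sigmoid to concentration-response data.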

[2] = target: MRGPRX4 (Homo sapiens, UniProt Q96LA9); test: MRGPRX4 activation, Fluo-8 Ca2+ FLIPR assay in HEK293T cells stably expressing MRGPRX4; assay type: cell-based; parameters: key to MRGPRX4 activation, Average / MRGPRX4 activation, Ave.: fluorescence change dF/F0
In short: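 Cells seeded overnight to >95% confluence, loaded 40-60 min at room temperature with 2 μM Fluo-8 AM, then kept in HHBS. Baseline read 30 s, compound added, signal followed 150 s more.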

[3] = FXR activation, HEK293T FXRE-NanoLuc reporter, 24 hr
[4] = FXR activation, HEK293T FXRE-NanoLuc reporter, 24 hr, read-out: EC50
[5] = MRGPRX4 activation, Ca2+ fluorescence, no activation in tested range reported as III, read-out: Activity (EC50 μM)

Sequence of MRGPRX4 (Q96LA9 whole entry): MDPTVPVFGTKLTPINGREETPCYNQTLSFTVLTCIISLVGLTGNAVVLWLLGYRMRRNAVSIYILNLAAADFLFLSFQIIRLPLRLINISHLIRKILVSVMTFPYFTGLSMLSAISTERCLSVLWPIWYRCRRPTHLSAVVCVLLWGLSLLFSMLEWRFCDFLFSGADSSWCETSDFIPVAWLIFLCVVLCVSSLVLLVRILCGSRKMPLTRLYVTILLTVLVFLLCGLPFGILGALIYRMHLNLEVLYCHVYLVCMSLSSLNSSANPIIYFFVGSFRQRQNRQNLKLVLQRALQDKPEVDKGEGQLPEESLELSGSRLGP

Structure (SMILES) | Efficacy (maximum measured induction of NanoLuc, normalized to CDCA set as 100%) [1, 3] | MRGPRX4 activation, fluorescence change (dF/F0), Average ([2]; Conc. (Log[M]) −4) | MRGPRX4 activation, fluorescence change (dF/F0), Average ([2]; Conc. (Log[M]) −4.5) | MRGPRX4 activation, fluorescence change (dF/F0), Average ([2]; Conc. (Log[M]) −5) | MRGPRX4 activation, fluorescence change (dF/F0), Average ([2]; Conc. (Log[M]) −5.5) | MRGPRX4 activation, fluorescence change (dF/F0), Average ([2]; Conc. (Log[M]) −6) | MRGPRX4 activation, fluorescence change (dF/F0), Average ([2]; Conc. (Log[M]) −7) | MRGPRX4 activation, fluorescence change (dF/F0), Average ([2]; Conc. (Log[M]) −8) | MRGPRX4 activation, fluorescence change (dF/F0), Average ([2]; Conc. (Log[M]) −9) | EC50 [1, 4] [µM] | EC50 [2, 5] [µM] | other results
C[C@H](CCC(=O)O)[C@H]1CC[C@H]2[C@@H]3CC[C@@H]4CC(=O)CC[C@]4(C)[C@H]3CC[C@]12C [compound 16] | C (100%<efficacy <=300%) | 0.416 | 0.322 | 0.130 | −0.020 | −0.010 | 0.013 | 0.012 | −0.005 |  |  | EC50 [1]: > 10 µM; EC50 [2]: < 50 µM
C[C@H](CCC(=O)O)[C@H]1CC[C@H]2[C@@H]3CC[C@@H]4CCCC[C@]4(C)[C@H]3CC[C@]12C [compound 17] |  | 0.036 and 0.042 |  |  |  |  |  |  |  | 1 to 10 | < 50 | Efficacy (maximum measured induction of NanoLuc, normalized to CDCA set as 100%) [1]: B (key: A: efficacy >400%; B: 300%<efficacy <=400%; C: 100%<efficacy <=300%; D: efficacy <=100%)
CC(=O)CC[C@@H](C)[C@H]1CC[C@H]2[C@@H]3CC[C@@H]4CCCC[C@]4(C)[C@H]3CC[C@]12C [compound 21] | C (100%<efficacy <=300%) |  |  |  |  |  |  |  |  | 1 to 10 | > 100 | 
CC[C@H]1[C@@H](O)[C@@H]2[C@H](CC[C@]3(C)[C@@H]([C@H](C)CC(=O)O)CC[C@@H]23)[C@@]2(C)CCCC[C@@H]12 [compound 26] | C (100%<efficacy <=300%) | −0.070 | −0.059 | −0.090 | −0.062 | −0.067 | −0.072 | −0.090 | −0.084 | > 10 | > 100 | 
CCOC(=O)C(=O)NCC[C@@H](C)[C@H]1CC[C@H]2[C@@H]3[C@H](O)[C@H](CC)[C@@H]4CCCC[C@]4(C)[C@H]3CC[C@]12C [compound 53] | C (100%<efficacy <=300%) |  |  |  |  |  |  |  |  | < 1 | > 100 | MRGPRX4 activation, Average ([2]; E3-9, Conc. (Log[M]) −4.0): 0.030; MRGPRX4 activation, Average ([2]; E3-9, Conc. (Log[M]) −4.5): 0.016; MRGPRX4 activation, Average ([2]; E3-9, Conc. (Log[M]) −5.0): 0.013; MRGPRX4 activation, Average ([2]; E3-9, Conc. (Log[M]) −5.4): 0.020; MRGPRX4 activation, Average ([2]; E3-9, Conc. (Log[M]) −5.9): 0.011; MRGPRX4 activation, Average ([2]; E3-9, Conc. (Log[M]) −6.4): 0.013; MRGPRX4 activation, Average ([2]; E3-9, Conc. (Log[M]) −6.9): 0.013; MRGPRX4 activation, Average ([2]; E3-9, Conc. (Log[M]) −7.3): 0.013; MRGPRX4 activation, Average ([2]; E3-9, Conc. (Log[M]) −7.8): 0.008; MRGPRX4 activation, Average ([2]; E3-9, Conc. (Log[M]) −8.3): 0.011
CC[C@H]1[C@@H](O)[C@@H]2[C@H](CC[C@]3(C)[C@@H]([C@H](C)CCC(=O)O)CC[C@@H]23)[C@@]2(C)CCC(F)(F)C[C@@H]12 [compound 55] | C (100%<efficacy <=300%) |  |  |  |  |  |  |  |  | < 1 | > 100 | MRGPRX4 activation, Average ([2]; E3-9, Conc. (Log[M]) −4.0): 0.006; MRGPRX4 activation, Average ([2]; E3-9, Conc. (Log[M]) −4.5): 0.004; MRGPRX4 activation, Average ([2]; E3-9, Conc. (Log[M]) −5.0): 0.018; MRGPRX4 activation, Average ([2]; E3-9, Conc. (Log[M]) −5.4): 0.023; MRGPRX4 activation, Average ([2]; E3-9, Conc. (Log[M]) −5.9): 0.019; MRGPRX4 activation, Average ([2]; E3-9, Conc. (Log[M]) −6.4): 0.019; MRGPRX4 activation, Average ([2]; E3-9, Conc. (Log[M]) −6.9): 0.016; MRGPRX4 activation, Average ([2]; E3-9, Conc. (Log[M]) −7.3): 0.019; MRGPRX4 activation, Average ([2]; E3-9, Conc. (Log[M]) −7.8): 0.016; MRGPRX4 activation, Average ([2]; E3-9, Conc. (Log[M]) −8.3): 0.018
CC[C@H]1[C@@H](O)[C@@H]2[C@H](CC[C@]3(C)[C@@H]([C@H](C)CO)CC[C@@H]23)[C@@]2(C)CCCC[C@@H]12 [compound 73] | A (efficacy >400%) | 0.098 | 0.042 | −0.031 | −0.031 | −0.020 | −0.023 | −0.023 | −0.014 | 1 to 10 | > 100 | 
